These results are taken from patent US8829034B2, “Compounds which modulate the CB2 receptor” (Boehringer Ingerlheim International GmbH, priority 2006, dated 2014).

Read-outs that look alike come from different tables or passages of the source.

This experiment has as its target T1, human CB2R (Homo sapiens, UniProt P34972).
T1 construct: host or cells: CHO cells
The experiment in a line: CB2R mediated modulation of cAMP synthesis. Type of experiment: cell-based. The conditions noted are these: for agonistic activity: found through the use of the above described assays. An outline of the steps:
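CHO cells expressing human CB2R were treated with compound for 30 min at 37 °C in buffer containing 1 mM IBMX, 0.25% BSA and 10 uM forskolin. cAMP was measured after lysis. EC50 was taken as 50% inhibition of forskolin-stimulated cAMP, with 100% defined by 1 uM CP55940, using a four-parameter logistic fit.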

T1 sequence (P34972 whole entry): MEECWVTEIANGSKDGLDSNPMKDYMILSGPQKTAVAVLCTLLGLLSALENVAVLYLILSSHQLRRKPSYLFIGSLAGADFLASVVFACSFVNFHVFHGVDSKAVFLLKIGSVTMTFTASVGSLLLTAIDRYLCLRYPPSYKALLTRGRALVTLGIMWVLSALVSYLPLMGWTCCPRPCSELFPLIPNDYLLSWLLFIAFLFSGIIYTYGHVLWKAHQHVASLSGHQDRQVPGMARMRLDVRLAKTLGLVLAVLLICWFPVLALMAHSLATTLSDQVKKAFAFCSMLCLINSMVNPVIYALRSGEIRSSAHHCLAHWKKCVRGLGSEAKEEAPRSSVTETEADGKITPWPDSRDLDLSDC

The EC50 is the concentration giving half of the maximal effect. On to `CC(C)(C)c1cc(NC(=O)C(C)(C)S(=O)(=O)CC2CCOC2)on1` (centres unmarked) [N-(3-tert-Butyl-isoxazol-5-yl)-2-methyl-2-(tetrahydro-furan-3-ylmethanesulfonyl)-propionamide], for which a half-maximal effect (EC50) was put at 18.5 nM and the agonistic activity entry is on record as “agonistic activity”.
Regarding `CC(C)(C(=O)Nc1ccc(C(F)(F)F)cn1)S(=O)(=O)CC1CC1` [2-Cyclopropylmethanesulfonyl-2-methyl-N-(5-trifluoromethyl-pyridin-2-yl)-propionamide], the agonistic activity entry is reported as “agonistic activity”.
`CC(C)(C)c1cc(NC(=O)C(C)(C)S(=O)(=O)CC2CCCO2)on1` (centres unmarked) [N-(3-tert-Butyl-isoxazol-5-yl)-2-methyl-2-(tetrahydro-furan-2-ylmethanesulfonyl)-propionamide]: the midpoint of the response, the EC50, lay at 31.5 nM and the agonistic activity entry is given as “agonistic activity”.
On to `CC(C)(C(=O)Nc1ccc(C(F)(F)F)cn1)S(=O)(=O)CC1CCNCC1` [2-Methyl-2-(piperidin-4-ylmethanesulfonyl)-N-(5-trifluoromethyl-pyridin-2-yl)-propionamide], for which the agonistic activity entry is “agonistic activity”.
Take `CCC(C)S(=O)(=O)C(C)(C)C(=O)Nc1nc(C(C)(C)C)cs1` (centres unmarked) [2-(Butane-2-sulfonyl)-N-(4-tert-butyl-thiazol-2-yl)-2-methyl-propionamide]: the agonistic activity entry was “agonistic activity”. Further, the EC50 (CHO cells expressing human CB2R, inhibition of forskolin-stimulated cAMP synthesis, compounds having agonist activity, read-out: CB2 EC50) worked out at 14.4 nM.
As for `CC(C)(C(=O)Nc1cnc2ccccc2c1)S(=O)(=O)CC1CCOCC1` [2-Methyl-N-quinolin-3-yl-2-(tetrahydro-pyran-4-ylmethanesulfonyl)-propionamide], the EC50 was 86 nM and the agonistic activity result is given as “agonistic activity”.
The like results for `CC(C)(C(=O)Nc1cc2ccccc2cn1)S(=O)(=O)CC1CCOCC1` [N-Isoquinolin-3-yl-2-methyl-2-(tetrahydro-pyran-4-ylmethanesulfonyl)-propionamide] were, in that order, 99.1 nM and “agonistic activity”.
As to `Cn1nc(C(C)(C)C)cc1NC(=O)C(C)(C)S(=O)(=O)C[C@@H]1CCC(=O)N1` [N-(5-tert-Butyl-2-methyl-2H-pyrazol-3-yl)-2-methyl-2-((S)-5-oxo-pyrrolidin-2-ylmethanesulfonyl)-propionamide], the agonistic activity entry is “agonistic activity”.
The same measure, in the same setting: the value for `CC(C)(C)S(=O)(=O)C(C)(C)C(=O)Nc1cccc(C(F)(F)F)n1` [2-Methyl-2-(2-methyl-propane-2-sulfonyl)-N-(6-trifluoromethyl-pyridin-2-yl)-propionamide] was “agonistic activity”; that for `CC(C)(C(=O)Nc1ccc(C(F)(F)F)cn1)S(=O)(=O)CC1CCCO1` (centres unmarked) [2-Methyl-2-(tetrahydro-furan-2-ylmethanesulfonyl)-N-(5-trifluoromethyl-pyridin-2-yl)-propionamide] was “agonistic activity”.
Take `CC(C)(C)c1cc(NC(=O)C(C)(C)S(=O)(=O)Cc2ccc(F)cc2)on1` [N-(3-tert-Butyl-isoxazol-5-yl)-2-(4-fluoro-phenylmethanesulfonyl)-2-methyl-propionamide]: a half-maximal response (EC50) required 17 nM and the agonistic activity entry is reported as “agonistic activity”.
As for `CC(C)(C(=O)Nc1nc(-c2ccc(F)cc2)cs1)S(=O)(=O)CC1CCOCC1` [N-[4-(4-Fluoro-phenyl)-thiazol-2-yl]-2-methyl-2-(tetrahydro-pyran-4-ylmethanesulfonyl)-propionamide], a half-maximal effect (EC50) was put at 5.5 nM and the agonistic activity entry is listed as “agonistic activity”.
Turning to `CCC(C)S(=O)(=O)C(C)(C)C(=O)Nc1cc(C(C)(C)C)no1` (centres unmarked) [2-(Butane-2-sulfonyl)-N-(3-tert-butyl-isoxazol-5-yl)-2-methyl-propionamide], a half-maximal response (EC50) required 3.3 nM and the agonistic activity entry was “agonistic activity”.
The corresponding values for `CC(C)(C)c1cc(NC(=O)C(C)(C)S(=O)(=O)CC2CCCCO2)no1` (centres unmarked) [N-(5-tert-Butyl-isoxazol-3-yl)-2-methyl-2-(tetrahydro-pyran-2-ylmethanesulfonyl)-propionamide] are 0.2 nM and “agonistic activity”.
The like results for `CC(C)(C)Cc1cc(NC(=O)C(C)(C)S(=O)(=O)CC2CCOCC2)on1` [N-[3-(2,2-Dimethyl-propyl)-isoxazol-5-yl]-2-methyl-2-(tetrahydro-pyran-4-ylmethanesulfonyl)-propionamide] were, in that order, 74.3 nM and “agonistic activity”.
For the compound `CC(C)S(=O)(=O)C(C)(C)C(=O)Nc1ccc(C(C)(C)C)cc1` [N-(4-tert-Butyl-phenyl)-2-methyl-2-(propane-2-sulfonyl)-propionamide], the agonistic activity result is listed as “agonistic activity”.
`CC(C)CCS(=O)(=O)C(C)(C)C(=O)Nc1ccc(C(F)(F)F)cn1` [2-Methyl-2-(3-methyl-butane-1-sulfonyl)-N-(5-trifluoromethyl-pyridin-2-yl)-propionamide]: the EC50 came to 19.9 nM and the agonistic activity entry is recorded as “agonistic activity”.
Regarding `Cn1nc(C(C)(C)C)cc1NC(=O)C(C)(C)S(=O)(=O)C[C@H]1CCC(=O)N1` [N-(5-tert-Butyl-2-methyl-2H-pyrazol-3-yl)-2-methyl-2-((R)-5-oxo-pyrrolidin-2-ylmethanesulfonyl)-propionamide], the agonistic activity result was “agonistic activity”.
Turning to `CC(C)S(=O)(=O)C(C)(C)C(=O)Nc1cc(-c2cccs2)nn1C` [2-Methyl-N-(2-methyl-5-thiophen-2-yl-2H-pyrazol-3-yl)-2-(propane-2-sulfonyl)-propionamide], the agonistic activity entry is given as “agonistic activity”.
In the case of `CC(C)S(=O)(=O)C(C)(C)C(=O)Nc1cc(C(C)(C)C)on1` [N-(5-tert-Butyl-isoxazol-3-yl)-2-methyl-2-(propane-2-sulfonyl)-propionamide], the agonistic activity result is recorded as “agonistic activity”.
For `CC(C)CCS(=O)(=O)C(C)(C)C(=O)Nc1cc(C(C)(C)C)on1` [N-(5-tert-Butyl-isoxazol-3-yl)-2-methyl-2-(3-methyl-butane-1-sulfonyl)-propionamide], the EC50 turned out to be 0.2 nM and the agonistic activity entry is reported as “agonistic activity”.
The corresponding values for `CC(C)(C)c1cc(NC(=O)C(C)(C)S(=O)(=O)C2(C)CCOCC2)no1` [N-(5-tert-Butyl-isoxazol-3-yl)-2-methyl-2-(4-methyl-tetrahydro-pyran-4-sulfonyl)-propionamide] are 9.4 nM and “agonistic activity”.
The corresponding values for `CCC(C)c1cc(NC(=O)C(C)(C)S(=O)(=O)CC2CCOCC2)on1` (centres unmarked) [N-(3-sec-Butyl-isoxazol-5-yl)-2-methyl-2-(tetrahydro-pyran-4-ylmethanesulfonyl)-propionamide] are 20 nM and “agonistic activity”.
Take `CC(C)(C(=O)Nc1cc(C(F)(F)F)ccn1)S(=O)(=O)C1CCCC1` [2-Cyclopentanesulfonyl-2-methyl-N-(4-trifluoromethyl-pyridin-2-yl)-propionamide]: the agonistic activity entry is recorded as “agonistic activity”.
Same read-out and setting: the same measure for `CC(C)(C)c1cc(NC(=O)C(C)(C)S(C)(=O)=O)no1` [N-(5-tert-Butyl-isoxazol-3-yl)-2-methanesulfonyl-2-methyl-propionamide]: “agonistic activity”; for `CC(C)S(=O)(=O)C(C)(C)C(=O)Nc1cccc(C(F)(F)F)n1` [2-Methyl-2-(propane-2-sulfonyl)-N-(6-trifluoromethyl-pyridin-2-yl)-propionamide]: “agonistic activity”.
Same read-out and setting: the same measure for `CCCS(=O)(=O)C(C)(C)C(=O)Nc1cc(-c2ccccc2)nn1C` [2-Methyl-N-(2-methyl-5-phenyl-2H-pyrazol-3-yl)-2-(propane-1-sulfonyl)-propionamide]: “agonistic activity”.
On to `Cn1nc(C(C)(C)C)cc1NC(=O)C(C)(C)S(=O)(=O)C1CCCCCC1` [N-(5-tert-Butyl-2-methyl-2H-pyrazol-3-yl)-2-cycloheptanesulfonyl-2-methyl-propionamide], for which a half-maximal effect (EC50) was put at 6.5 nM and the agonistic activity entry was “agonistic activity”.
For the compound `CC(C)(C(=O)Nc1nc(C(F)(F)F)cs1)S(=O)(=O)CC1CCOCC1` [2-Methyl-2-(tetrahydro-pyran-4-ylmethanesulfonyl)-N-(4-trifluoromethyl-thiazol-2-yl)-propionamide], the agonistic activity entry is “agonistic activity”.
Same read-out and setting: the value for `CC(C)(C)c1csc(NC(=O)C(C)(C)S(C)(=O)=O)n1` [N-(4-tert-Butyl-thiazol-2-yl)-2-methanesulfonyl-2-methyl-propionamide] was “agonistic activity”; that for `CC(C)(C(=O)Nc1cccc2ccccc12)S(=O)(=O)CC1CCOCC1` [2-Methyl-N-naphthalen-1-yl-2-(tetrahydro-pyran-4-ylmethanesulfonyl)-propionamide] was “agonistic activity”.
On to `CC(C)CS(=O)(=O)C(C)(C)C(=O)Nc1cc(C(C)(C)C)no1` [N-(3-tert-Butyl-isoxazol-5-yl)-2-methyl-2-(2-methyl-propane-1-sulfonyl)-propionamide], for which the EC50 was found to be 1.6 nM and the agonistic activity result is listed as “agonistic activity”.
The like results for `Cn1nc(C(C)(C)C)cc1NC(=O)C(C)(C)S(=O)(=O)CC1CCC1` [N-(5-tert-Butyl-2-methyl-2H-pyrazol-3-yl)-2-cyclobutylmethanesulfonyl-2-methyl-propionamide] were, in that order, 33 nM and “agonistic activity”.
The like results for `CC(C)(C)c1csc(NC(=O)C2(S(=O)(=O)C3CCCCC3)CCC2)n1` [1-Cyclohexanesulfonyl-cyclobutanecarboxylic acid (4-tert-butyl-thiazol-2-yl)-amide] were, in that order, 11.7 nM and “agonistic activity”.
Take `CC(C)S(=O)(=O)C(C)(C)C(=O)Nc1nc2ccccc2s1` [N-Benzothiazol-2-yl-2-methyl-2-(propane-2-sulfonyl)-propionamide]: the agonistic activity entry is listed as “agonistic activity”.
